We go through 14 molecules from patent US10246451B2, “Propionic acid derivatives and methods of use thereof” (Aviara Pharmaceuticals, Inc., priority 2017, dated 2019).

A value given as a limit tells only on which side of the number the result lay.

In the first assay the target is α4β1 integrin (Homo sapiens, UniProt P05556+P13612). The assay is described as follows: a4b1 IC50 (inhibition of α4β1 integrin; no method described). It is filed as binding.
α4β1 integrin, sequence (P05556 21-798, one chain of several): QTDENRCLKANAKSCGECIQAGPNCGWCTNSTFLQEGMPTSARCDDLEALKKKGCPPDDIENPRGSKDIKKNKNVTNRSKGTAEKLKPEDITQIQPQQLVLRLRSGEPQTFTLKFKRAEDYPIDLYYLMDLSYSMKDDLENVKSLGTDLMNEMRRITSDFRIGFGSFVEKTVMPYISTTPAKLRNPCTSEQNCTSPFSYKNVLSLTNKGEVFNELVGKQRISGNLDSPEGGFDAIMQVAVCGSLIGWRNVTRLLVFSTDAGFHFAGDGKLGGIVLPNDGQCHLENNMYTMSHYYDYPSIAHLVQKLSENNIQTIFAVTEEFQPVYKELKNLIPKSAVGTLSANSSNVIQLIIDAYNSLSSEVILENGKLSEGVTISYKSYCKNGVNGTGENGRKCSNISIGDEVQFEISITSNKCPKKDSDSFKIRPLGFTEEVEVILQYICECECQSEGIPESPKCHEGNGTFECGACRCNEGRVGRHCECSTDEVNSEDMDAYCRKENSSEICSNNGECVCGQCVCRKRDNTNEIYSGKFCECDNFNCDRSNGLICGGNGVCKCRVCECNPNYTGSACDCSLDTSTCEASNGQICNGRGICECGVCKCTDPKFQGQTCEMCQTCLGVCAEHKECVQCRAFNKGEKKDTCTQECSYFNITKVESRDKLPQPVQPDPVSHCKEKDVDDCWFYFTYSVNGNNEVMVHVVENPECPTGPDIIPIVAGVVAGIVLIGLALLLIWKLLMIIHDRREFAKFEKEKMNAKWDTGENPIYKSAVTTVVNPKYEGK
The IC50 is the concentration that gives 50% inhibition. High values mean lower potency, low ones higher potency. As to `Cc1ccccc1C(F)(F)c1cccc([C@H](CC(=O)O)NC(=O)Nc2c(O)ccn(C)c2=O)c1` [Compound 3-65, sodium (S)-3-(3-(difluoro(o-tolyl)methyl)phenyl)-3-(3-(1-methyl-4-oxido-2-oxo-1,2-dihydropyridin-3-yl)ureido)propanoate], the IC50 was less than 20 nM.

As to `Cn1ccc(O)c(NC(=O)N[C@@H](CC(=O)O)c2cccc(Oc3ccccc3)c2)c1=O` [Compound 3-71, sodium (S)-3-(3-(1-methyl-4-oxido-2-oxo-1,2-dihydropyridin-3-yl)ureido)-3-(3-phenoxyphenyl)propanoate], the IC50 is less than 200 nM.

`Cc1ccc(Oc2cccc([C@H](CC(=O)O)NC(=O)Nc3c(O)ccn(C)c3=O)c2)cc1` [Compound 3-85, sodium (S)-3-(3-(1-methyl-4-oxido-2-oxo-1,2-dihydropyridin-3-yl)ureido)-3-(3-(p-tolyloxy)phenyl)propanoate] displayed an IC50 of less than 20 nM.

For the molecule `Cn1ccc(O)c(NC(=O)N[C@@H](CC(=O)O)c2cccc(Oc3ccc(F)cc3F)c2)c1=O` [Compound 3-86, sodium(S)-3-(3-(2,4-difluorophenoxy)phenyl)-3-(3-(1-methyl-4-oxido-2-oxo-1,2-dihydropyridin-3-yl)ureido)propanoate], the half-inhibitory concentration (IC50) was less than 20 nM.

For `Cc1cccc(C)c1Oc1cccc([C@H](CC(=O)O)NC(=O)Nc2c(O)ccn(C)c2=O)c1` [Compound 3-87, sodium(S)-3-(3-(2,6-dimethylphenoxy)phenyl)-3-(3-(1-methyl-4-oxido-2-oxo-1,2-dihydropyridin-3-yl)ureido)propanoate], the IC50 was less than 20 nM.

Regarding `Cn1ccc(O)c(NC(=O)N[C@@H](CC(=O)O)c2cccc(Cc3ccccc3C(F)(F)F)c2)c1=O` [Compound 3-88, sodium (S)-3-(3-(1-methyl-4-oxido-2-oxo-1,2-dihydropyridin-3-yl)ureido)-3-(3-(2-(trifluoromethyl)benzyl)phenyl)propanoate], the half-maximal inhibitory concentration (IC50) was less than 20 nM.

Take `Cn1ccc(O)c(NC(=O)N[C@@H](CC(=O)O)c2cccc(Cc3cccc(C(F)(F)F)c3)c2)c1=O` [Compound 3-89, sodium (S)-3-(3-(1-methyl-4-oxido-2-oxo-1,2-dihydropyridin-3-yl)ureido)-3-(3-(3-(trifluoromethyl)benzyl)phenyl)propanoate]: the concentration for half-maximal inhibition (IC50) was less than 20 nM.

In turn, `Cn1ccc(O)c(NC(=O)N[C@@H](CC(=O)O)c2cccc(Cc3ccc(C(F)(F)F)cc3)c2)c1=O` [Compound 3-90, sodium (S)-3-(3-(1-methyl-4-oxido-2-oxo-1,2-dihydropyridin-3-yl)ureido)-3-(3-(4-(trifluoromethyl)benzyl)phenyl)propanoate] returned a half-maximal inhibitory concentration (IC50) of less than 20 nM.

Molecule `Cn1ccc(O)c(NC(=O)N[C@@H](CC(=O)O)c2cccc(Cc3ccccc3OC(F)F)c2)c1=O` [Compound 3-91, sodium(S)-3-(3-(2-(difluoromethoxy)benzyl)phenyl)-3-(3-(1-methyl-4-oxido-2-oxo-1,2-dihydropyridin-3-yl)ureido) propanoate] registered an IC50 of less than 20 nM.

Take `COc1ccccc1Cc1cccc([C@H](CC(=O)O)NC(=O)Nc2c(O)ccn(C)c2=O)c1` [Compound 3-92]: the IC50 was less than 20 nM.

As for `Cn1ccc(O)c(NC(=O)N[C@@H](CC(=O)O)c2cccc(Cc3ccccc3F)c2)c1=O` [Compound 3-93, sodium (S)-3-(3-(2-fluorobenzyl)phenyl)-3-(3-(1-methyl-4-oxido-2-oxo-1,2-dihydro-pyridin-3-yl)ureido)propanoate], the 50% inhibitory concentration (IC50) is less than 20 nM.

For the molecule `Cc1cccc(C)c1Cc1cccc([C@H](CC(=O)O)NC(=O)Nc2c(O)ccn(C)c2=O)c1` [Compound 3-94, sodium (S)-3-(3-(2,6-dimethylbenzyl)phenyl)-3-(3-(1-methyl-4-oxido-2-oxo-1,2-dihydropyridin-3-yl)ureido)propanoate], the IC50 was less than 20 nM.

Molecule `Cc1ccccc1Cc1ccc([C@H](CC(=O)O)NC(=O)Nc2c(O)ccn(C)c2=O)s1` [Compound 3-95, sodium (S)-3-(3-(1-methyl-4-oxido-2-oxo-1,2-dihydropyridin-3-yl)ureido)-3-(5-(2-methylbenzyl)thiophen-2-yl)propanoate] gave an IC50 of less than 20 nM.

Turning to `Cn1ccc(O)c(NC(=O)N[C@@H](CC(=O)O)c2ccc(Cc3ccccc3)s2)c1=O` [Compound 3-96, sodium (S)-3-(5-benzylthiophen-2-yl)-3-(3-(1-methyl-4-oxido-2-oxo-1,2-dihydro-pyridin-3-yl)ureido)propanoate], the IC50 was less than 20 nM.

The next assay has as its target T1, α4β7 integrin (Homo sapiens, UniProt P13612+P26010).
T1 sequence (P13612 34-1032): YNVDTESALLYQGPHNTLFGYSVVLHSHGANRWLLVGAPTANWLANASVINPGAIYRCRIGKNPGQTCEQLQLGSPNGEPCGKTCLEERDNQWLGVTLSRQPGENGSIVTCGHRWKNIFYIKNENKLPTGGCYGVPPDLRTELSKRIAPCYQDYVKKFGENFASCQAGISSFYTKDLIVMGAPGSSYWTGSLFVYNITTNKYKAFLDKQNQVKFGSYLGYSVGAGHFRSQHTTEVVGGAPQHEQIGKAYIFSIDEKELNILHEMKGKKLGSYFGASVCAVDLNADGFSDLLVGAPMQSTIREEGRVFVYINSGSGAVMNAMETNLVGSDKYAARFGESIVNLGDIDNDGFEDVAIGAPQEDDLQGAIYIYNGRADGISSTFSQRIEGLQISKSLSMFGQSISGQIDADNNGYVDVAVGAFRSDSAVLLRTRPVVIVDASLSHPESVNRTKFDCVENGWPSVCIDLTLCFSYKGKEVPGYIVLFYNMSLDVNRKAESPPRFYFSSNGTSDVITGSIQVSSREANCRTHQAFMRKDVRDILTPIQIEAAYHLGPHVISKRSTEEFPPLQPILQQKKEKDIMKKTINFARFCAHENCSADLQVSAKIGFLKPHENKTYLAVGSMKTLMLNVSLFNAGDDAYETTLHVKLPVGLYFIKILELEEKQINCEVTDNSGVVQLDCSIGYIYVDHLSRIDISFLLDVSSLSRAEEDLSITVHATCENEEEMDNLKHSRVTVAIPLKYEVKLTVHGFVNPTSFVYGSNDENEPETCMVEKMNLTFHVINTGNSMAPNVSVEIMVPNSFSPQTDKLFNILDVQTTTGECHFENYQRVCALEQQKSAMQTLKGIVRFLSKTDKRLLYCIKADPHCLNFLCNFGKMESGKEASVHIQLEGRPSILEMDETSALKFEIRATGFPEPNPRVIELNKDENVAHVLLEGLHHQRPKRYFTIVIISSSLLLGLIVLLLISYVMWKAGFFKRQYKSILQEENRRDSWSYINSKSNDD
T1 sequence (P26010 20-798): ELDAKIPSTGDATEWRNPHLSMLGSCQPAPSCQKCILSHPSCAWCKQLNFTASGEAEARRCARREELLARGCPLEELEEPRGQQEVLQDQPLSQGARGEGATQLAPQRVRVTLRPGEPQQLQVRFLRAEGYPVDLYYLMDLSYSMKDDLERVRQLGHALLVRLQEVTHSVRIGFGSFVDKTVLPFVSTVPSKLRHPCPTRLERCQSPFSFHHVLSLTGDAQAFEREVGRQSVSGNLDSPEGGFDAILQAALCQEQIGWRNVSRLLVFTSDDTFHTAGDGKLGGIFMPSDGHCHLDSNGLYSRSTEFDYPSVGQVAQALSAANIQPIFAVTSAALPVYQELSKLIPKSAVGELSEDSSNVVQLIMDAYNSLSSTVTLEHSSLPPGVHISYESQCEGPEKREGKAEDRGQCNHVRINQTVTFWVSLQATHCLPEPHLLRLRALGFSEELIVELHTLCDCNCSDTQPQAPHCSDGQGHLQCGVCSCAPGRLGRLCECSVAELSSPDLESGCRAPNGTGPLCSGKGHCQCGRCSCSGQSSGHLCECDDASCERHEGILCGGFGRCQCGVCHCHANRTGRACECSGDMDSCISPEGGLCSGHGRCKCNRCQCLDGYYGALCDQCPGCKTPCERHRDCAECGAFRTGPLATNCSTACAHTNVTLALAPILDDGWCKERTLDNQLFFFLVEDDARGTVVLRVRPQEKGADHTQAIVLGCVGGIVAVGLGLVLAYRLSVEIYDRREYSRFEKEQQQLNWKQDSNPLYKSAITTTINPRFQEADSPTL
Briefly: a4b7 IC50 (inhibition of α4β7 integrin; no method described). It is filed as binding.
As for `Cc1ccccc1C(F)(F)c1cccc([C@H](CC(=O)O)NC(=O)Nc2c(O)ccn(C)c2=O)c1` [Compound 3-65, sodium (S)-3-(3-(difluoro(o-tolyl)methyl)phenyl)-3-(3-(1-methyl-4-oxido-2-oxo-1,2-dihydropyridin-3-yl)ureido)propanoate], the half-inhibitory concentration (IC50) was less than 200 nM.

`Cn1ccc(O)c(NC(=O)N[C@@H](CC(=O)O)c2cccc(Oc3ccccc3)c2)c1=O` [Compound 3-71, sodium (S)-3-(3-(1-methyl-4-oxido-2-oxo-1,2-dihydropyridin-3-yl)ureido)-3-(3-phenoxyphenyl)propanoate]: the IC50 was less than 20 nM.
